One assay has as its target T1, MCT1 (Homo sapiens, UniProt P53985).
T1 construct: BT-20 cells—a triple negative human breast cancer cell line expressing exclusively MCT1 (confirmed by Western blotting); host or cells: BT-20
T1 sequence (P53985 1-500): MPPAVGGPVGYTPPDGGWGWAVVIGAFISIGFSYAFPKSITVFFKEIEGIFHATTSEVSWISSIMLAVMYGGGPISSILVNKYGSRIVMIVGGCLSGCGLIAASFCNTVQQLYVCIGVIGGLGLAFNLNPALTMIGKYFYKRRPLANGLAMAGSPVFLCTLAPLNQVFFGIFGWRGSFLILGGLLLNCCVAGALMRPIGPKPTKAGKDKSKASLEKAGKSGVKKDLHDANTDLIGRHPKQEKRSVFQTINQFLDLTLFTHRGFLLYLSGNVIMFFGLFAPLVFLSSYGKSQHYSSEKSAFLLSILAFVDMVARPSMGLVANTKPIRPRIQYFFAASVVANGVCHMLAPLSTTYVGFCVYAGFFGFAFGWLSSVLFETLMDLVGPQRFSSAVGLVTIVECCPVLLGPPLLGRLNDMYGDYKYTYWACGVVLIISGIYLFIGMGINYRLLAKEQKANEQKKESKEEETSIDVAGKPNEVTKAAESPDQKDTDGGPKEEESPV
T1 sequence (P35613 140-385 partner limits assumed): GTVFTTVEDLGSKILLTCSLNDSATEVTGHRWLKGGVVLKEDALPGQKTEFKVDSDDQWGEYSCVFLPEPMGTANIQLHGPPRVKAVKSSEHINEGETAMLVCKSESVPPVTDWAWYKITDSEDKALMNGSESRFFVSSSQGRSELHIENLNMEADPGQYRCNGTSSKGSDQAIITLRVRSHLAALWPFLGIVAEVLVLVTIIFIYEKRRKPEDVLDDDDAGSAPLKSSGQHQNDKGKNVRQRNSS
Nature of the assay: MCT1 transport assay (L-lactate influx, BCECF-AM intracellular pH). The format is cell-based. As to conditions: BT-20 cells expressing exclusively MCT1. The source says:
The following in vitro MCT4 and MCT1 transport assays were used to measure the effect of the compounds on L-lactate influx into two different cell lines: • a) MDA-MB-231 cells—a triple negative human breast cancer cell line expressing exclusively MCT4 (confirmed by Western blotting) was used for the MCT4 transport assay, • b) BT-20 cells—a triple negative human breast cancer cell line expressing exclusively MCT1 (confirmed by Western blotting) was used for the
(§1) The compounds' efficacy in both assays was determined by calculating their IC50 value (the concentration of test compound that inhibited 50% of biological activity).
(§2) MCT4 is predominantly involved in cellular efflux of lactate from the cell, preventing intracellular acidification. In the MCT4 in vitro transport system described here it was possible to drive influx of lactate in the cells and test the compounds efficacy in preventing this process. MCT1 is involved in influx-efflux of lactate, and because it is closely related to MCT4, it is a major selectivity target for MCT4 inhibitor. The MCT1 in vitro transport system described here measured the influx of lactate in the cells and ability of test compounds in preventing this process.
BT-20 (ATCC); Media: EMEM+10% FBS+1% PS
(§3) Tyrode's Solution pH7.4 (NaCl 119 mM; KC1 5 mM; HEPES pH7.4 25 mM; CaCl2 2 mM; MgCl2 2 mM; Glucose 6 g/L)
(§4) The following assay was performed to assess MCT4 (MDA-MB-231 cell line) or MCT1 (BT-20 cell line) activity by monitoring the intracellular pH change that accompanies lactate/proton transport using the pH-sensitive fluorescent dye BCECF-AM.
(§5) Compound preparation: The compounds were serially diluted in 100% DMSO 1:3 for 8 pts and transferred (500 nl) to a 96-well plate by Echo.
(§6) Cell preparation: Cells were briefly rinsed with 10 ml of PBS solution to remove all traces of serum, trypsinized (0.05% Trypsin-EDTA) at 25° C. for 2-3 minutes and washed twice with Tyrode's solution. The cell viability and concentration were determined using Vi-Cell. Cells were resuspended in Tyrode's solution.
(§7) Cells were loaded with the pH sensitive dye BCECF-AM (5 uM final concentration from the 30 mM DMSO stock solution) at 37° C. for 30 minutes before being washed twice to remove excess dye and resuspended to 2 million/ml cells in Tyrode's solution. Cells were seeded into a 96-well plate (200,000 cells/well) directly onto the test compound or a reference compound for 10 minutes at 37° C. Following incubation with test compounds, 25 ul of 30 mM Sodium-L-lactate was added. This addition was performed on the FlexStation III as a part of a real-time kinetic protocol. The ratio of cellular fluorescence at 535 nm after excitation at 490 nm/440 nm was measured over time for baseline (pre-lactate addition) and post-lactate addition for 60 sec with or without compounds present. Inhibitory concentration response curves were generated for compounds and their IC50 values calculated.

The next assay has as its target T2, MCT4 (Homo sapiens, UniProt O15427).
T2 construct: MDA-MB-231 cells—a triple negative human breast cancer cell line expressing exclusively MCT4 (confirmed by Western blotting); host or cells: MDA-MB-231
T2 sequence (O15427 2-465 limits assumed): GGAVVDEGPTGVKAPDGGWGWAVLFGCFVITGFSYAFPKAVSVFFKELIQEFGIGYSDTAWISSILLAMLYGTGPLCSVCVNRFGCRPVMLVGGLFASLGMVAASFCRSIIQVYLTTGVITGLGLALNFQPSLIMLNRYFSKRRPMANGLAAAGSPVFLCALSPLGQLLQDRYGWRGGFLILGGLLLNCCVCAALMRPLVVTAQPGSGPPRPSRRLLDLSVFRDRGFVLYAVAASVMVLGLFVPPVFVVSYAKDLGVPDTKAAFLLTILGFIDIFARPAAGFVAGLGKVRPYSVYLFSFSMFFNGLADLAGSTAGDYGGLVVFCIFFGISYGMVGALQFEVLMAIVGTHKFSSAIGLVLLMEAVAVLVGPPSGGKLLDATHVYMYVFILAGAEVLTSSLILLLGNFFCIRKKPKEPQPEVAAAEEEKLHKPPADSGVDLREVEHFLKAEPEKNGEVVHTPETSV
As to the kind of experiment: MCT4 transport assay (L-lactate influx, BCECF-AM intracellular pH). The format is cell-based. As to conditions: MDA-MB-231 cells expressing exclusively MCT4. As for the experimental part: as §1, §2, §3, §4, §5, §6, §7

Each structure is given as a SMILES string. pIC50: −log10 of the molar value.

By pIC50 is commonly meant the negative decadic logarithm of the IC50, by convention in mol/L.

As for `Cc1nc2nc(C)c(O[C@@H]3CCN(c4ccc(-c5ccc(CN6CCOCC6)nn5)cc4)C3)c(C)n2n1` [Compound 1, (R)-4-((6-(4-(3-((2,5,7-trimethyl-[1,2,4]triazolo[1,5-a]pyrimidin-6-yl)oxy)pyrrolidin-1-yl)phenyl)pyridazin-3-yl)methyl)morpholine], the pIC50 on MCT1 was < 6.00. Regarding `Cc1cn2c(C)c(O[C@@H]3CCN(c4ccc(-c5ccc(CN6CCOCC6)nn5)cc4)C3)c(C)nc2n1` [Compound 2, (R)-4-((6-(4-(3-((2,5,7-trimethylimidazo[1,2-a]pyrimidin-6-yl)oxy)pyrrolidin-1-yl)phenyl)pyridazin-3-yl)methyl)morpholine], the pIC50 on MCT1 is < 6.00; on MCT4, 6.30 to 7.00.

For `Cc1nc2nc(C)c(C)n2c(C)c1O[C@@H]1CCN(c2ccc(-c3ccc(CN4CCOCC4)nn3)cc2)C1` [Compound 3, (R)-4-((6-(4-(3-((2,3,5,7-tetramethylimidazo[1,2-a]pyrimidin-6-yl)oxy)pyrrolidin-1-yl)phenyl)pyridazin-3-yl)methyl)morpholine], the pIC50 on MCT1 and on MCT4 was < 6.00 each time.

Regarding `Cc1cc2nc(C)c(O[C@@H]3CCN(c4ccc(-c5ccc(CN6CCOCC6)nn5)cc4)C3)c(C)n2n1` [Compound 4, (R)-4-((6-(4-(3-((2,5,7-trimethylpyrazolo[1,5-a]pyrimidin-6-yl)oxy)pyrrolidin-1-yl)phenyl)pyridazin-3-yl)methyl)morpholine], the pIC50 was < 6.00 on MCT1 and > 7.00 at MCT4. Taken in the same sequence, the figures for `Cc1nc2nc(C)c(O[C@@H]3CCN(c4cnc(C#CCN5CCOCC5)nc4)C3)c(C)n2n1` [Compound 5, (R)-4-(3-(5-(3-((2,5,7-trimethyl-[1,2,4]triazolo[1,5-a]pyrimidin-6-yl)oxy)pyrrolidin-1-yl)pyrimidin-2-yl)prop-2-yn-1-yl)morpholine] were < 6.00 and > 7.00. For `Cc1nc2nc(C)c(O[C@@H]3CCN(c4cnc(C56CCC(CN7CCOCC7)(CC5)CC6)nc4)C3)c(C)n2n1` [Compound 6, (R)-4-((4-(5-(3-((2,5,7-trimethyl-[1,2,4]triazolo[1,5-a]pyrimidin-6-yl)oxy)pyrrolidin-1-yl)pyrimidin-2-yl)bicyclo[2.2.2]octan-1-yl)methyl)morpholine] the same measures were < 6.00 and > 7.00. For `Cc1nc2nc(C)c(O[C@@H]3CCN(c4ccc(-c5ccc(CN6CC7(COC7)C6)nn5)cc4)C3)c(C)n2n1` [Compound 7, (R)-6-((6-(4-(3-((2,5,7-trimethyl-[1,2,4]triazolo[1,5-a]pyrimidin-6-yl)oxy)pyrrolidin-1-yl)phenyl)pyridazin-3-yl)methyl)-2-oxa-6-azaspiro[3.3]heptane] the same measures were < 6.00 and > 7.00.

Regarding `COC1CN(Cc2ccc(-c3ccc(N4CC[C@@H](Oc5c(C)nc6nc(C)nn6c5C)C4)cc3)nn2)C1` [Compound 8, (R)-6-((1-(4-(6-((3-methoxyazetidin-1-yl)methyl)pyridazin-3-yl)phenyl)pyrrolidin-3-yl)oxy)-2,5,7-trimethyl-[1,2,4]triazolo[1,5-a]pyrimidine], the pIC50 was < 6.00 on MCT1 and > 7.00 on MCT4.

Take `Cc1nc2nc(C)c(O[C@@H]3CCN(c4ccc(-c5ccc(CN6CC(N(C)C)C6)nn5)cc4)C3)c(C)n2n1` [Compound 9, (R)-N,N-dimethyl-1-((6-(4-(3-((2,5,7-trimethyl-[1,2,4]triazolo[1,5-a]pyrimidin-6-yl)oxy)pyrrolidin-1-yl)phenyl)pyridazin-3-yl)methyl)azetidin-3-amine]: the figures for the pIC50 at MCT1 and at MCT4 were < 6.00 and > 7.00, respectively. For `Cc1nc2nc(C)c(O[C@@H]3CCN(c4ccc(-c5ccc(CN6CC(S(C)(=O)=O)C6)nn5)cc4)C3)c(C)n2n1` [Compound 10, (R)-2,5,7-trimethyl-6-((1-(4-(6-((3-(methylsulfonyl)azetidin-1-yl)methyl)pyridazin-3-yl)phenyl)pyrrolidin-3-yl)oxy)-[1,2,4]triazolo[1,5-a]pyrimidine] the same measures were < 6.00 and > 7.00.

(Values after patent US20230192704A1, “MONOCARBOXYLIC ACID TRANSPORTER 4 (MCT4) MODULATORS AND USES THEREOF” (Teon Therapeutics, Inc., priority 2020, published 2023).)
